One experiment deals with ACC2 (Homo sapiens, UniProt O00763). Briefly: In vitro ACC2 inhibition assay (ADP-Glo). The class given is biochemical. The settings on record: read-out: ACC2. In a few lines: (§1)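 Enzyme (human ACC1 or ACC2) and compound, serially diluted 1:3 over 11 points from a 600 uM DMSO stock, were preincubated 15 min before substrate addition.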
(ADP-Glo first removes unused ATP, then detects ADP through luciferase.)

A further experiment deals with Candida species. Briefly: Anti-Fungal Activity Assay, summary over Candida species. The class given is cell-based. As to conditions: summary of Table 3. As to the method: (§2) Compounds of the present invention were evaluated in an Anti-Fungal Activity Assay. An exemplary procedure for the assay, which measures the susceptibility of various Candida species to anti-fungal compounds, follows. Compounds to be tested (including fluconazole and amphotericin B) were dissolved in DMSO to obtain a solution having a concentration of 1 mg/mL. […] All species were grown from frozen stock by directly plating on to freshly prepared Sabouraud Dextrose agar (BD, Difco) and incubated overnight in ambient air at 35° C. for 24 h. A direct suspension was prepared in RPMI 1640+MOPS (Lonza, Biowhittaker) by taking individual colonies from the overnight cultures using sterile swabs soaked in sterile saline. The concentration of the suspension was determined using pre-determined standard curves. […] The original CLSI guidelines focused on reading Candida MICs after 48 h of incubation. As reading after only 24 h offers a clear advantage of patient care, QC limits are being established for all drugs at 24 h. That being said there are no known interpretive breakpoints for amphotericin B at 24 h and the current fluconazole interpretive breakpoints are based on a 48 h reading. The MIC breakpoints for the Pharmaron test compounds were recorded at 48 h, and for the soraphen the 24 h time-point was added. All MIC determinations were achieved by visually comparing the growth found in the antibiotic challenged wells to that of the growth control.

The test system of experiment [1] is C. parapsilosis ATCC 22019. Briefly: Anti-Fungal Activity Assay (broth microtiter MIC). The format is cell-based. As to conditions: 3 replicates, test compounds read at 48 h. As to the method: as §2
The subject of the next experiment is C. krusei ATCC 6258. In words: Anti-Fungal Activity Assay (broth microtiter MIC). The settings on record: 3 replicates, test compounds read at 48 h. The class given is cell-based. Here is the method:
as §2

The test system of the next experiment is C. albicans ATCC 90028. Briefly: Anti-Fungal Activity Assay (broth microtiter MIC). The settings on record: 3 replicates, test compounds read at 48 h. The format is cell-based. Here is the method: as §2
The next experiment has as its target ACC1 (Homo sapiens, UniProt Q13085). In words: In vitro ACC1 inhibition assay (ADP-Glo). The format is biochemical. As to conditions: read-out: ACC1. An outline of the steps:
as §1

The subject of another experiment is target protein (ACC). Briefly: Thermal Shift Assay (TSA). The format is binding. An excerpt: 103, 43, 15835-15840, the entirety of which is incorporated herein by reference.
The next experiment has as its system HepG2 cells. Briefly: [14C] Acetate Incorporation HepG2 Cellular Assay. The class given is cell-based. As to conditions: Homo sapiens; HepG2 cells, FIG. 4; read-out: IC50, incorporation of isotopically labeled acetate into fatty acids. Here is the method:
Compounds of the present invention were evaluated in a [^14C] Acetate Incorporation Assay. An exemplary procedure for the assay, which measures the incorporation of isotopically labeled acetate into fatty acids, follows. HepG2 cells were maintained in T-75 flasks containing DMEM supplemented with 2 mM 1-glutamine, penicillin G (100 units/ml), streptomycin 100 μg/ml with 10% FBS and incubated in a humidified incubator with 5% CO2 at 37° C. Cells were fed every 2-3 days. On Day 1. cells were seeded in 24 well plates at a density of 1.2×10^5 cells/ml/well with the growth medium. On Day 3 the medium was replaced with fresh medium containing 10% FBS. On Day 4 the medium was replaced with 0.5 ml of fresh medium containing test compound (in DMSO; final [DMSO] is 0.5%) and the cells were incubated at 37° C. for 1 hour. To one copy of plate, 4 ul of [2-^14C]acetate (56 mCi/mmol; 1 mCi/ml; PerkinElmer) was added and the cells were incubated at 37° C., 5% CO2 for 5 hrs. To a second copy of plate, 4 ul of cold acetate were added and the cells were incubated at 37° C., 5% CO2 for 5 hrs. This plate was used for protein concentration measurement. Medium was removed and placed in a 15 ml centrifuge tube (BD, Falcon/352096). Cells were rinsed with 1 ml PBS, then aspirated, and the rinse and aspiration steps were repeated. 0.5 ml of 0.1N NaOH were added to each well and let sit at RT to dissolve cell monolayer. The remaining cell suspension was pooled with medium. For the protein determination plate, an aliquot was removed for protein determination (25 ul). […] 5 ml petroleum ether was added per tube, shaken vigorously, centrifuged at 1000 rpm for 5 min, and 500 uL of the petroleum ether layer was transferred to tubes for Microbeta reading, then 2 ml Aquasol-2 were added to each tube, the tubes were shaken and counted with a Microbeta Liquid Scintillation Counter (Perkin Elmer).
The remaining petroleum ether layer was discarded and the aqueous phase reserved for fatty acid extractions. […] 2 ml of Aquasol-2 was added to each vial, and the vials were shaken and counted on a scintillation counter.

[2] abbreviates: Lodderomyces parapsilosis, ATCC22019, 48 h, read-out: MIC.
Where [3] appears, read: Pichia kudriavzevii, ATCC6258, 48 h, read-out: MIC.
Where [4] appears, read: Candida albicans, ATCC90028, 48 h, read-out: MIC.

≈ marks a conversion by molar mass, not a printed value. Where “and” joins values, the source holds several entries; their conditions need not be identical. Equal values may be shown once. Read-outs that look alike come from different tables or passages of the source.

In general, MIC refers to the smallest concentration in the dilution series that meets the test's criterion for growth inhibition.

ACC2, sequence (O00763 whole entry, species assumed): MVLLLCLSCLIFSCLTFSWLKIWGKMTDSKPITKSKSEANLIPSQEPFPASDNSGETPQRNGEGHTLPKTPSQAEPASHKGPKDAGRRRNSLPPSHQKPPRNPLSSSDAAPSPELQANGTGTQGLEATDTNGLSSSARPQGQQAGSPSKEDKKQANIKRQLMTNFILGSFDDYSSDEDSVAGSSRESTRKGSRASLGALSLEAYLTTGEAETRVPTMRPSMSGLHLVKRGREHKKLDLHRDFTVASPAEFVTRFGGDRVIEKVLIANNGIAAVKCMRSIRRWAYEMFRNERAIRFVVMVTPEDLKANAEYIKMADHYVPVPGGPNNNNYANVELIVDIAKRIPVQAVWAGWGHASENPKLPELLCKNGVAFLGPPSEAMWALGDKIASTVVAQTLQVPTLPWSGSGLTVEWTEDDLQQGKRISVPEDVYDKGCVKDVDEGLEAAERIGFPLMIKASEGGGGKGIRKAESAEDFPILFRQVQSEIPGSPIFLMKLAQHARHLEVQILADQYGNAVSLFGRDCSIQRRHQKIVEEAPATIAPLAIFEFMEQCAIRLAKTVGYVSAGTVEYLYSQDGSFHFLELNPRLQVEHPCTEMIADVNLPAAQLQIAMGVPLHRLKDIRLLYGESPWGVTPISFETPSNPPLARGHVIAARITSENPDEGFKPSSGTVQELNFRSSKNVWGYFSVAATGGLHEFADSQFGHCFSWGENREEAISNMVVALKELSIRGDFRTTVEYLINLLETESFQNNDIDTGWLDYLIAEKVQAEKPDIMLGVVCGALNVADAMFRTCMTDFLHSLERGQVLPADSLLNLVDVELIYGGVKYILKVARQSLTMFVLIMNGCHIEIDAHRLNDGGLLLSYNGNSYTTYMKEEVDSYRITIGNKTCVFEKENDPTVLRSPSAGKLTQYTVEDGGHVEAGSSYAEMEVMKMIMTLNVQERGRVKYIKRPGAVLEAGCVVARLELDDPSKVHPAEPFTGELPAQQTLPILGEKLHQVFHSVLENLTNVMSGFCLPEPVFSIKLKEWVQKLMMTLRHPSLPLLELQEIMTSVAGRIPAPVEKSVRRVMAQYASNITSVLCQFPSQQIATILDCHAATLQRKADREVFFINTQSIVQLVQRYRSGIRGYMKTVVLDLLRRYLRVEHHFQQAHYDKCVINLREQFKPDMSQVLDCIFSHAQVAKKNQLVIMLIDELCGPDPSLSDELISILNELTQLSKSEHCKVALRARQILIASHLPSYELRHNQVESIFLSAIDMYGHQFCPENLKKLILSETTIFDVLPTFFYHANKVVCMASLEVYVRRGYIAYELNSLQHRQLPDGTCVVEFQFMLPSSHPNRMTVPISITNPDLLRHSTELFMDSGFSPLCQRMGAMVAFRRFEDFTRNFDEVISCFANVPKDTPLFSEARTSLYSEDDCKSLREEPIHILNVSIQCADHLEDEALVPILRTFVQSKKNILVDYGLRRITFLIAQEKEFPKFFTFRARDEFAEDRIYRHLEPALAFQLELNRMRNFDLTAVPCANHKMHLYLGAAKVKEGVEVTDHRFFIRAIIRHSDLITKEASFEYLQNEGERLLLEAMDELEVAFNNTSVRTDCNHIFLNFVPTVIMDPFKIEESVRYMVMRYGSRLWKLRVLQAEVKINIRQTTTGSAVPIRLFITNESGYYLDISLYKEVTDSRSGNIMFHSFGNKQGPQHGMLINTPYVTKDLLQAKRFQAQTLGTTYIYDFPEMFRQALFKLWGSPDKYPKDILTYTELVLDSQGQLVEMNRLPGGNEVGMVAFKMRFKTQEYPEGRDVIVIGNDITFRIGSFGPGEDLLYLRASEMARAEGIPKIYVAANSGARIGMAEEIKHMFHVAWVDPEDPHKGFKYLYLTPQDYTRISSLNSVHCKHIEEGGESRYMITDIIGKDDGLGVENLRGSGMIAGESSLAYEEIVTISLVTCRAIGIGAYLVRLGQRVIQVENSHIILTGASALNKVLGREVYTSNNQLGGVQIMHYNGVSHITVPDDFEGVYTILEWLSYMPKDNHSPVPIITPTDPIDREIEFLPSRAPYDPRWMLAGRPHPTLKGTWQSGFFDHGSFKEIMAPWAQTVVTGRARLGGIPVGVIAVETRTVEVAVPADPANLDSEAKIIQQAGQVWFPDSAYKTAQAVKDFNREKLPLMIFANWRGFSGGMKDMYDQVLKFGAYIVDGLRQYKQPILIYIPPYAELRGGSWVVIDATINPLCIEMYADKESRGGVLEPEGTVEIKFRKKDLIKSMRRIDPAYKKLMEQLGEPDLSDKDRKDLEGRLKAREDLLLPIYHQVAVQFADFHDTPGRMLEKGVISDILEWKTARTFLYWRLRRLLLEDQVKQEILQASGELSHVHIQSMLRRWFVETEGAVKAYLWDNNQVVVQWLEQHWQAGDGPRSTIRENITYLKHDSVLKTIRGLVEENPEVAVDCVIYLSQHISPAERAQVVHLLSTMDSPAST

`COc1ccccc1[C@H](Cn1c(=O)n(C(C)(C)C(=O)N2CCOCC2)c(=O)c2c(C)c(-c3ncco3)sc21)OC(C)C` [I-235, 1-[(2R)-2-(2-methoxyphenyl)-2-(propan-2-yloxy)ethyl]-5-methyl-3-[2-methyl-1-(morpholin-4-yl)-1-oxopropan-2-yl]-6-(1,3-oxazol-2-yl)-1H,2H,3H,4H-thieno[2,3-d]pyrimidine-2,4-dione]: the IC50 at ACC2 and at ACC1 was < 100 nM in each case. Besides, the “anti-fungal activity MICs” value in the experiment with Candida species is listed as “low ug/mL range”. The MIC (in experiment [1]; in experiment [1] (setting [2]); against C. krusei ATCC 6258; in the experiment with C. krusei ATCC 6258 (setting [3]); against C. albicans ATCC 90028; in the experiment on C. albicans ATCC 90028 (setting [4])) was 8 µg/mL (≈ 13.4 µM) each time.

Turning to `CCNC(=O)C(C)(C)n1c(=O)c2c(C)c(-c3ncco3)sc2n(C[C@H](OC(C)C)c2ccccc2OC)c1=O` [I-236, N-ethyl-2-[1-[(2R)-2-(2-methoxyphenyl)-2-(propan-2-yloxy)ethyl]-5-methyl-6-(1,3-oxazol-2-yl)-2,4-dioxo-1H,2H,3H,4H-thieno[2,3-d]pyrimidin-3-yl]-2-methylpropanamide], the IC50 on ACC2 and at ACC1 was < 100 nM in each case. Besides, the “anti-fungal activity MICs” value with Candida species was “low ug/mL range”. Further, the MIC in experiment [1] worked out at 2 µg/mL (≈ 3.61 µM); in experiment [1] (setting [2]), 2 µg/mL (≈ 3.61 µM); with C. krusei ATCC 6258, 4 µg/mL (≈ 7.21 µM); with C. krusei ATCC 6258 (setting [3]), 8 µg/mL (≈ 14.4 µM); with C. albicans ATCC 90028 it was 8 µg/mL (≈ 14.4 µM); in the experiment on C. albicans ATCC 90028 (setting [4]), 8 µg/mL (≈ 14.4 µM).

Take `CCOC(=O)c1sc2c(c1C)c(=O)n(CC(=O)O)c(=O)n2CC(OC(C)C)c1ccccc1` (stereo in doubt) [I-97, (R)-2-(6-(ethoxycarbonyl)-1-(2-isopropoxy-2-phenylethyl)-5-methyl-2,4-dioxo-1,2-dihydrothieno[2,3-d]pyrimidin-3(4H)-yl)acetic acid]: the IC50 at ACC2 is < 1000 nM; on ACC1, < 100 nM. In addition, the “thermal melting point change” value in the experiment on target protein (ACC) (FIG. 2) is “more than 14 ′C”.

As for `COc1ccccc1[C@H](Cn1c(=O)n(C(C)(C)C(=O)O)c(=O)c2c(C)c(-c3ncco3)sc21)OC(C)C` [I-159, 2-[1-[(2R)-2-(2-methoxyphenyl)-2-(propan-2-yloxy)ethyl]-5-methyl-6-(1,3-oxazol-2-yl)-2,4-dioxo-1H,2H,3H,4H-thieno[2,3-d]pyrimidin-3-yl]-2-methylpropanoic acid], on ACC2, the IC50 was < 1000 nM. The “anti-fungal activity MICs” value in the experiment on Candida species is on record as “low ug/mL range”. For the same compound, the MIC is >64 µg/mL in experiment [1]; > 64 µg/mL in experiment [1] (setting [2]); 16 µg/mL and 32 µg/mL in the experiment on C. krusei ATCC 6258; 16 µg/mL (≈ 30.3 µM) in the experiment with C. krusei ATCC 6258 (setting [3]); 8 µg/mL (≈ 15.2 µM) in the experiment on C. albicans ATCC 90028; 8 µg/mL (≈ 15.2 µM) with C. albicans ATCC 90028 (setting [4]).

Consider `COc1ccccc1[C@H](Cn1c(=O)n(C(C)(C)C(N)=O)c(=O)c2c(C)c(-c3ncco3)sc21)OC(C)C` [I-174, 2-[1-[(2R)-2-(2-methoxyphenyl)-2-(propan-2-yloxy)ethyl]-5-methyl-6-(1,3-oxazol-2-yl)-2,4-dioxo-1H,2H,3H,4H-thieno[2,3-d]pyrimidin-3-yl]-2-methylpropanamide], for which the IC50 at ACC2, in the experiment on HepG2 cells and on ACC1 was < 100 nM throughout. Besides, the “anti-fungal activity MICs” value with Candida species is listed as “low ug/mL range”. The MIC in experiment [1] was 8 µg/mL (≈ 15.2 µM); in experiment [1] (setting [2]) it was 8 µg/mL (≈ 15.2 µM); with C. krusei ATCC 6258 it was 2 µg/mL (≈ 3.8 µM); with C. krusei ATCC 6258 (setting [3]), 2 µg/mL (≈ 3.8 µM); against C. albicans ATCC 90028 it was 2 µg/mL (≈ 3.8 µM); in the experiment with C. albicans ATCC 90028 (setting [4]) it was 2 µg/mL (≈ 3.8 µM). Further, the “thermal melting point change compared with Soraphen A” value in the experiment on target protein (ACC) (FIG. 3) is reported as “equivalent to that of Soraphen A”.

Turning to `COc1ccccc1[C@H](Cn1c(=O)n(C(C)(C)C(N)=O)c(=O)c2c(C)c(-c3ncco3)sc21)OC1CCOCC1` [I-246, 2-[1-[(2R)-2-(2-methoxyphenyl)-2-(oxan-4-yloxy)ethyl]-5-methyl-6-(1,3-oxazol-2-yl)-2,4-dioxo-1H,2H,3H,4H-thieno[2,3-d]pyrimidin-3-yl]-2-methylpropanamide], the “anti-fungal activity MICs” value with Candida species was “low ug/mL range”. For the same compound, the MIC was determined as 4 µg/mL (≈ 7.03 µM) in experiment [1]; 4 µg/mL (≈ 7.03 µM) in experiment [1] (setting [2]); 16 µg/mL (≈ 28.1 µM) in the experiment with C. krusei ATCC 6258; 16 µg/mL (≈ 28.1 µM) in the experiment on C. krusei ATCC 6258 (setting [3]); 4 µg/mL (≈ 7.03 µM) against C. albicans ATCC 90028; 4 µg/mL (≈ 7.03 µM) in the experiment with C. albicans ATCC 90028 (setting [4]).

Take `Cc1c(-c2ncco2)sc2c1c(=O)n(C(C)(C)C(=O)O)c(=O)n2C[C@H](O[C@H]1CC[C@H](O)CC1)c1ccccc1` [I-165, 2-[1-[(2R)-2-[(4-hydroxycyclohexyl)oxy]-2-phenylethyl]-5-methyl-6-(1,3-oxazol-2-yl)-2,4-dioxo-1H,2H,3H,4H-thieno[2,3-d]pyrimidin-3-yl]-2-methylpropanoic acid]: the IC50 on ACC2 and on ACC1 was < 100 nM throughout. The minimal inhibitory concentration (MIC) is >64 µg/mL in experiment [1]; > 64 µg/mL in experiment [1] (setting [2]); >64 µg/mL in the experiment on C. krusei ATCC 6258; > 64 µg/mL with C. krusei ATCC 6258 (setting [3]); >64 µg/mL in the experiment with C. albicans ATCC 90028; > 64 µg/mL in the experiment on C. albicans ATCC 90028 (setting [4]).
